The source made the active and inactive calls.
Key:
[1] = biological target: T1, Cytochrome P450 1A2 (Homo sapiens, UniProt P05177);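 also: PubChem cytochrome P450 panel assay, CYP1A2 panel member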
T1 sequence (P05177 whole entry): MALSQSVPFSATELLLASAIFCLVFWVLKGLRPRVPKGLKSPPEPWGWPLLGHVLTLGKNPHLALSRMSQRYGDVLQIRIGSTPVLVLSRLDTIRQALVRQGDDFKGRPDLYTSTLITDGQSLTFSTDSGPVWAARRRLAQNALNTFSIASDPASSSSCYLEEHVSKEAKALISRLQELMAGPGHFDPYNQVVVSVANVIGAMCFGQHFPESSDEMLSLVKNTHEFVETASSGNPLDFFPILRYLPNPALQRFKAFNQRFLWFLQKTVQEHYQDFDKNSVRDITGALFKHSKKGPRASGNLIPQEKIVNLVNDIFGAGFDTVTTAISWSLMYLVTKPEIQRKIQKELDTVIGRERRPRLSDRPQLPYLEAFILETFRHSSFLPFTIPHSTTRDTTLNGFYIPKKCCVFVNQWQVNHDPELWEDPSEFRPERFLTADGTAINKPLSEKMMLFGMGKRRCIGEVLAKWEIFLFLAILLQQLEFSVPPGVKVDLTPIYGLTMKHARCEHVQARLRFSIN

[2] = biological target: Cytochrome P450 3A4 (Homo sapiens, UniProt P08684);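 also: CYP3A4 tested as one member of a cytochrome P450 panel screen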
Chain of Cytochrome P450 3A4 (P08684 whole entry): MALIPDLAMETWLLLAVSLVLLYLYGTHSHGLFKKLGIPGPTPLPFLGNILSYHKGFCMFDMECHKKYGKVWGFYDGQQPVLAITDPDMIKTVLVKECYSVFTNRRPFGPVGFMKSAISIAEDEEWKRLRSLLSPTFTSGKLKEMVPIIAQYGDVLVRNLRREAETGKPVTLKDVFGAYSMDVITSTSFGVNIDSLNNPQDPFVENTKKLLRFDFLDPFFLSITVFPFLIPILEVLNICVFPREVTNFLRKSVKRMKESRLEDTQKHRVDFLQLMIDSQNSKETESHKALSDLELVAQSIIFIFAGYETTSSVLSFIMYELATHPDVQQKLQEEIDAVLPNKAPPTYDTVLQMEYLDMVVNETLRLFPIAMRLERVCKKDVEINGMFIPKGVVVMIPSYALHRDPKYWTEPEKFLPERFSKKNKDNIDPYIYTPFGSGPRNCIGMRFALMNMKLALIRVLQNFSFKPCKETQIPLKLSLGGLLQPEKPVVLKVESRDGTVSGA

[3] = test system: Vero; assay: cells; assay type: functional, cell-based; conditions: Chlorocebus sabaeus
[4] = test system: Vero; assay: cells; assay type: functional; conditions: Chlorocebus sabaeus
[5] = biological target: T2, CAAX prenyl protease 2 (Homo sapiens, UniProt Q9Y256); assay: human Rce1 protease inhibitors, dose response, biochemical, yeast membranes, quenched-peptide fluorescence, cherry-pick (AID 588849)
T2 sequence (Q9Y256 whole entry): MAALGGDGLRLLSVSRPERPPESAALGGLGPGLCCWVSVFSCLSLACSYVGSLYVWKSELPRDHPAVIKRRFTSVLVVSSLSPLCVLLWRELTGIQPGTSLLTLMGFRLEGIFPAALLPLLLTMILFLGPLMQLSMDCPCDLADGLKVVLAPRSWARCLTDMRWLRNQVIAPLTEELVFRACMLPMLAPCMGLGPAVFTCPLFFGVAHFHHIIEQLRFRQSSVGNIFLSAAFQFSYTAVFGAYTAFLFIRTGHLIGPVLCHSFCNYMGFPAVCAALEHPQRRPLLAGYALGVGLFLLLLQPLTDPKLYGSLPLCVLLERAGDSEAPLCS

[6] = biological target: Trypsin (Sus scrofa, UniProt P00761); assay: porcine trypsin inhibitors, dose response, selectivity assay for Rce1 protease inhibitor project, biochemical, quenched peptide fluorescence, cherry-pick (AID 488789)
Chain of Trypsin (P00761 whole entry): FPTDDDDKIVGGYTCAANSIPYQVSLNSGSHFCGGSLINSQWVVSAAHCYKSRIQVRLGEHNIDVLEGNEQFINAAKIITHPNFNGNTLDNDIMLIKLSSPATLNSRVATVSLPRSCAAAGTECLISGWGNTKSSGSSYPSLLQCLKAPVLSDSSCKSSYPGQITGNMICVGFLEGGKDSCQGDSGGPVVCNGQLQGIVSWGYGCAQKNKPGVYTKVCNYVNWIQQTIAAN

[7] = biological target: Cytochrome P450 2C9 (Homo sapiens, UniProt P11712)
Chain of Cytochrome P450 2C9 (P11712 whole entry): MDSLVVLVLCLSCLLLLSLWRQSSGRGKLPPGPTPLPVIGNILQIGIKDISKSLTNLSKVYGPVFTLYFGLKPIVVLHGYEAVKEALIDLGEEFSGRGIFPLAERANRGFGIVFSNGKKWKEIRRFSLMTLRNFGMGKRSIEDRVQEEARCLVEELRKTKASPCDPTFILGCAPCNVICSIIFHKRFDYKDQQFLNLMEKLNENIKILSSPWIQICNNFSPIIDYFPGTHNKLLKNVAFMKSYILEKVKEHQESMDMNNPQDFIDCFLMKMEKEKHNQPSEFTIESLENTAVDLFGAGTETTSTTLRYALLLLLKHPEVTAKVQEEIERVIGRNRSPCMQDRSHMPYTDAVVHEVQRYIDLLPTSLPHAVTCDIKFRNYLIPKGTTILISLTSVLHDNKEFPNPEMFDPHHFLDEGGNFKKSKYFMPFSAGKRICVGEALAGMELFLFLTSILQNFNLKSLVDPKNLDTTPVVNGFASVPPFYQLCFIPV

[8] = biological target: T3, Alkaline phosphatase, tissue-nonspecific isozyme (Homo sapiens, UniProt P05186); assay: human TNAP enzyme inhibitors, SAR follow-up, biochemical, luminescent, dose response (AID 1056)
T3 sequence (P05186 whole entry): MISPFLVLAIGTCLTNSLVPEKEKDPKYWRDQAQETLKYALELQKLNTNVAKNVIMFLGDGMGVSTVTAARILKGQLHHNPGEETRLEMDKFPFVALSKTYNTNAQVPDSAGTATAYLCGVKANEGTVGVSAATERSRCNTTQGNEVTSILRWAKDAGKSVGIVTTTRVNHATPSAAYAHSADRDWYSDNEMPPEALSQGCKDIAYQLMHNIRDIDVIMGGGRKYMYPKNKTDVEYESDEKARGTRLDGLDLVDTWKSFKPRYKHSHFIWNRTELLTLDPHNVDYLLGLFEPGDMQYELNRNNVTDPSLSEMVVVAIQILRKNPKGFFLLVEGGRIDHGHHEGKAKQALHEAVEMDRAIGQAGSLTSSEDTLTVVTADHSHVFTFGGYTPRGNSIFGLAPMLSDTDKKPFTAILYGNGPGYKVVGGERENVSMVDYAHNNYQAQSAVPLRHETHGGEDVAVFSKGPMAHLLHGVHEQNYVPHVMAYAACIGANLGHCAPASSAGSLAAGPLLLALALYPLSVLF

[9] = biological target: Glyceraldehyde-3-phosphate dehydrogenase (Homo sapiens, UniProt P04406)
Chain of Glyceraldehyde-3-phosphate dehydrogenase (P04406 whole entry): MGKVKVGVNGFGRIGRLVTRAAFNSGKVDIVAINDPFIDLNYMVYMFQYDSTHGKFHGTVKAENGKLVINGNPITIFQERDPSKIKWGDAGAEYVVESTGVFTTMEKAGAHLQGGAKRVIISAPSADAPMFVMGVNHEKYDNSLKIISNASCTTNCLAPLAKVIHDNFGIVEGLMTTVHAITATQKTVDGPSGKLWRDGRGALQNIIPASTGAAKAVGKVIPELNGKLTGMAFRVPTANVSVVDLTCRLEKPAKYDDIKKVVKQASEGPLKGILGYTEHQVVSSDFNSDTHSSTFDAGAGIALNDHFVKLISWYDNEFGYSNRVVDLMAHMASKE

[10] = cells; assay type: functional
[11] = Vero E6 cell cytotoxicity, dose response, cytotoxicity control for non-replicating M. tuberculosis project, secondary assay (AID 492998); assay type: functional, VeroE6; conditions: Vero C1008
[12] = THP-1 cell cytotoxicity, dose response, cytotoxicity control for non-replicating M. tuberculosis project (AID 489025); assay type: functional
[13] = HepG2 cell cytotoxicity, dose response, cytotoxicity control for non-replicating M. tuberculosis project (AID 489018); assay type: functional; conditions: Mycobacterium tuberculosis
[14] = biological target: T4, Hexokinase (Trypanosoma brucei, UniProt Q38C41); assay: Confirmation assay for inhibitors of Trypanosoma brucei hexokinase 1-Analogue-first series. [Related pubchem assays (depositor defined):AID1430, AID1632, AID2516, AID2560, AID2579, AID2600, AID449725, AID492951]; assay type: functional
T4 sequence (Q38C41 whole entry): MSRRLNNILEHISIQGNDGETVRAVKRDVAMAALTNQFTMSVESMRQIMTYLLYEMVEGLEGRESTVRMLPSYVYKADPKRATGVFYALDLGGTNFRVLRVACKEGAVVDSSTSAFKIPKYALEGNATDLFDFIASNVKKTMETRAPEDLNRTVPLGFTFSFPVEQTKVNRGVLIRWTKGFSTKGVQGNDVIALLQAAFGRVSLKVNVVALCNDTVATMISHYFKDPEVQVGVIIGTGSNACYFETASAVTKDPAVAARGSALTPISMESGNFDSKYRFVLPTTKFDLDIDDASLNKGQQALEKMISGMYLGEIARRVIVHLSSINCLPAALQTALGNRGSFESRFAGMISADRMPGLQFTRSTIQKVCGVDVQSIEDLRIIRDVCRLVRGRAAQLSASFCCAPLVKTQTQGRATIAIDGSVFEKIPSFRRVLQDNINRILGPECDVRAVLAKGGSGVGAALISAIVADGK

[15] = biological target: DNA dC->dU-editing enzyme APOBEC-3A (Homo sapiens, UniProt P31941); assay: Dose Response confirmation of small molecule APOBEC3A DNA Deaminase Inhibitors via a fluorescence-based single-stranded DNA deaminase assay. [Related pubchem assays (depositor defined):AID493011, AID493024]; assay type: functional
Chain of DNA dC->dU-editing enzyme APOBEC-3A (P31941 whole entry): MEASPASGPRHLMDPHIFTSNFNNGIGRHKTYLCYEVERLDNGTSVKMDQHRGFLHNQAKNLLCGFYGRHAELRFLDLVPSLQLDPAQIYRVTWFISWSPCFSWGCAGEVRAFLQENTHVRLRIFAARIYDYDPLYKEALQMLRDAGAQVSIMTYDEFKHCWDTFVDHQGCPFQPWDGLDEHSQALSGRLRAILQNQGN

[16] = biological target: DNA dC->dU-editing enzyme APOBEC-3G (Homo sapiens, UniProt Q9HC16); assay type: functional;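 also: Dose-response counterscreen measuring inhibition of APOBEC3G DNA deaminase activity, run while confirming APOBEC3A inhibitors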
Chain of DNA dC->dU-editing enzyme APOBEC-3G (Q9HC16 whole entry): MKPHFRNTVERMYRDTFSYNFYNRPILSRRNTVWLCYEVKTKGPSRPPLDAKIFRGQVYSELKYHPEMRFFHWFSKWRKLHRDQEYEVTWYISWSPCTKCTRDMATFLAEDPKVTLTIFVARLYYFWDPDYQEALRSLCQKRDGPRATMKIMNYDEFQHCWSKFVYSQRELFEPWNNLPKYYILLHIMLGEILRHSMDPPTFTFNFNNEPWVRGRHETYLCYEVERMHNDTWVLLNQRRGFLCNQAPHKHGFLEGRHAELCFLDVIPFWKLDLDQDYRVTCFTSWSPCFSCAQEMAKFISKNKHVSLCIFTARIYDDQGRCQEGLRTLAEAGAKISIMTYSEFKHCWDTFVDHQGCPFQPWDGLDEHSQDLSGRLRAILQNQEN

[17] = biological target: T5, Dual specificity protein phosphatase 6 (Rattus norvegicus, UniProt Q64346)
T5 sequence (Q64346 whole entry): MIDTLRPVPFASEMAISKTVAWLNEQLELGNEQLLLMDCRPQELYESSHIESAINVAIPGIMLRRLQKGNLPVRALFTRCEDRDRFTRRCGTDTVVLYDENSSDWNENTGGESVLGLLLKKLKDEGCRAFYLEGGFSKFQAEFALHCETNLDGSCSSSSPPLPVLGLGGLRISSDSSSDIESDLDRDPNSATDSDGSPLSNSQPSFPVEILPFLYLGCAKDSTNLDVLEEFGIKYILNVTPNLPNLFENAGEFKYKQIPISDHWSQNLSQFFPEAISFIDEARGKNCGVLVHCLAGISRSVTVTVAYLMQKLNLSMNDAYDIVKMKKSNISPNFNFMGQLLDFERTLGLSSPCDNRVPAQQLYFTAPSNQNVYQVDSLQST

[18] = biological target: T6, Tyrosine-protein phosphatase non-receptor type 7 (Homo sapiens, UniProt P35236); assay type: functional
T6 sequence (P35236 whole entry): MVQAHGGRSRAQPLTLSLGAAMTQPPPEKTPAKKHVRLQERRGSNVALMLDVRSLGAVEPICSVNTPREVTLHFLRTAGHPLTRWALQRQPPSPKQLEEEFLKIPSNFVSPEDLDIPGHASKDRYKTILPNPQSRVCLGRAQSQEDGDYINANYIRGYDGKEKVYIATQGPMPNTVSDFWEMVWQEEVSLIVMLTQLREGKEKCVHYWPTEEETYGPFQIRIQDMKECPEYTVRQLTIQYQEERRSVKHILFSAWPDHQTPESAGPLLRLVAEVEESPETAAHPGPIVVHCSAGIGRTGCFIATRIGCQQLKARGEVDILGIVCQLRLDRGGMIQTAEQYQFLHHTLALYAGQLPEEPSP

[19] = biological target: T5, Dual specificity protein phosphatase 6; assay type: functional
[20] = test system: Vero; assay: host cell cytotoxicity of antiviral hits, dose response, cytotoxicity control for West Nile virus antiviral project, secondary assay (AID 1650); assay type: functional, Chlorocebus sabaeus
[21] = growth suppression of beta-catenin-knockout colon cells, dose response, cell-based, HCT116, human colon tumor (AID 1045); assay type: functional;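 also: HCT116 colon tumor cells with beta catenin knocked out; cells exposed to compound for 60 hours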
[22] = growth suppression of PTEN-null colon cells, dose response, cell-based, HCT116 PTEN knockout (AID 1047); assay type: functional;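 also: HCT116 colon tumor cells with PTEN knocked out; cells exposed to compound for 60 hours before readout; potency for loss of cell viability measured by luminescence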
[23] = biological target: Induced myeloid leukemia cell differentiation protein Mcl-1 (Homo sapiens, UniProt Q07820); assay type: functional
Chain of Induced myeloid leukemia cell differentiation protein Mcl-1 (Q07820 whole entry): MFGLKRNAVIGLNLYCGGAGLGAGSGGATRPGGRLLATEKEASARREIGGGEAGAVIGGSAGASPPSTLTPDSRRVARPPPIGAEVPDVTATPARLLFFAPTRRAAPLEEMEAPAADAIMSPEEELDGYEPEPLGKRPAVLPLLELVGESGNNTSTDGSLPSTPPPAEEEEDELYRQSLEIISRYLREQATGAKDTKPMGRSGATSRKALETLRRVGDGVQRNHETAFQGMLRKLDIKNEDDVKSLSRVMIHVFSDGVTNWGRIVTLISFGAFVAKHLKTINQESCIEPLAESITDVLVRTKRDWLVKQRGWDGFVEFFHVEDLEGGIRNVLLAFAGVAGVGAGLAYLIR

[24] = Luminescence Cell-Based Dose Response HTS to Identify Inhibitors of 5'UTR Stem-Loop Driven Prion Protein mRNA Translation in H4 Neuroglioblastoma Cells. [Related pubchem assays: 1827 (Project Summary), 1813 (Primary HTS)]; assay type: functional
[25] = biological target: Paired box protein Pax-8 (Homo sapiens, UniProt Q06710); assay: inhibitors of PAX8-driven TPO luciferase reporter, dose response, RMG-I cells, cherry-pick (AID 687027); assay type: functional, cell-based;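 also: luciferase reporter driven by Pax8 target thyroperoxidase promoter measured by SteadyGlo luminescence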
Chain of Paired box protein Pax-8 (Q06710 whole entry): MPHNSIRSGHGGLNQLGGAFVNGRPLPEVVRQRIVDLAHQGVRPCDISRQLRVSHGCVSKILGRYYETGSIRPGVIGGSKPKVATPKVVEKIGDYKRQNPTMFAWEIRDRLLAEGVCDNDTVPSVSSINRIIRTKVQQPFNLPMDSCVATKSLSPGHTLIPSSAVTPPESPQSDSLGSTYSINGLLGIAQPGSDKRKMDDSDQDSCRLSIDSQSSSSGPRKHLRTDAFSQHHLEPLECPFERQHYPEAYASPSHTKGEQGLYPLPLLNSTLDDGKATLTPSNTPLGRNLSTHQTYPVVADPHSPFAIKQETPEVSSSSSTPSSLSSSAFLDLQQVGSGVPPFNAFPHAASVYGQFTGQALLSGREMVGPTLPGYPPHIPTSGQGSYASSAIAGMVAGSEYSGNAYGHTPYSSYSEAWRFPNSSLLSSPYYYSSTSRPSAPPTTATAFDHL

[26] = test system: BJ; assay: cytotoxicity toward Ras-transformed BJeLR fibroblasts, dose response, cell-based, alamar blue fluorescence, cherrypicked samples (AID 2631); assay type: functional; conditions: Homo sapiens;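 also: confirmatory dose-response assay in RAS-dependent BJ fibroblasts engineered with TERT, LT and ST, with cytotoxicity read by fluorescence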
[27] = inhibitors of firefly luciferase expression or activity, dose response, H4 neuroglioma cells, luminescence (AID 1990); assay type: functional, cell-based
[28] = inhibitors of SNCA 5'UTR-driven reporter translation, confirmation, H4 neuroglioma cells, luminescence (AID 1988); assay type: functional, cell-based

SMILES: CCN(CC)S(=O)(=O)c1ccc(NC(=O)COC(=O)c2ccc(Br)o2)cc1
- AC50 [1]: 0.316 µM (inconclusive)
- AC50 [2]: inconclusive

SMILES: Cc1ccc(N(Cc2cc(O)nc3ccccc23)C(=O)CCl)c(C)c1
- IC50 [3]: > 25 µM (active)
- CC50 [4]: 7.95 µM (active)

SMILES: COC(=O)N1CCC2(CC1)CN(c1ccccc1)C2
- AC50 [2]: inconclusive

SMILES: CCN1CCN(Cc2c(O)ccc3c(=O)c(-c4ccccc4OC)coc23)CC1
- AC50 [5]: 5.2 µM (active)
- AC50 [6]: 16 µM (active)

SMILES: Cn1c(=O)c(-c2ccccc2)nc2cnc(Oc3ccccc3)nc21
- AC50 [7]: 12.6 µM (inconclusive)
- AC50 [2]: inconclusive

SMILES: O=S(=O)(Nc1cnc2ccccc2c1)c1cc(Cl)ccc1Cl
- IC50 [8]: 49.6 µM (active)
- IC50 [9]: > 100 µM (not active)

SMILES: CCc1ccc2c(c1)Sc1ccccc1CC2N1CCN(C)CC1 (stereo unspecified)
- IC50 [10]: 14.1 µM (active)
- CC50 [11]: > 20 µM (active)
- CC50 [12]: 15.8 µM (active)
- CC50 [13]: > 20 µM (active)

SMILES: O=C(O)c1ccc(Cl)cc1NC(=O)C1CCOCC1
- IC50 [14]: > 25 µM (inactive)

SMILES: COc1ccc(C(=O)Nc2cc(Cl)ccc2C(=O)O)cn1
- IC50 [14]: > 25 µM (inactive)

SMILES: CC(C)(C)c1ccc(C(=O)Nc2cc(Cl)ccc2C(=O)O)cc1
- IC50 [14]: 2.12 µM (active)

SMILES: C[N+]1(CC(O)COc2ccccc2)CCN(C(=O)c2ccc([N+](=O)[O-])cc2)CC1 (stereo unspecified)
- IC50 [15]: 2.82 µM (active)
- IC50 [16]: 3.44 µM (active)

SMILES: CCn1c(=O)n(Cc2ccc([N+](=O)[O-])cc2)c(=O)n([C@@H](Cc2ccccc2)C(=O)O)c1=O
- IC50 [17]: > 100 µM (inactive)
- IC50 [18]: > 100 µM (not active)
- IC50 [19]: > 100 µM (inactive)
- IC50 [9]: > 100 µM (not active)

SMILES: Cc1cc2ncn(/N=C/c3ccc([N+](=O)[O-])s3)c2cc1C
- CC50 ([20]; Chlorocebus sabaeus, Vero): 18.5 µM (active)
- IC50 [10]: 1.25 µM (active)
- CC50 [11]: 17.1 µM (active)
- CC50 [12]: 6.75 µM (active)
- CC50 [13]: 14 µM (active)
- EC50 [21]: 3.33 µM (active)
- EC50 [22]: 3.36 µM (active)
- IC50 [23]: 3.27 µM (active)

SMILES: C[C@H]1O[C@@H](O[C@H]2[C@@H](O)C[C@H](O[C@H]3[C@@H](O)C[C@H](O[C@H]4CC[C@@]5(C)[C@H](CC[C@@H]6[C@@H]5C[C@@H](O)[C@]5(C)[C@@H](C7=CC(=O)OC7)CC[C@]65O)C4)O[C@@H]3C)O[C@@H]2C)C[C@H](O)[C@@H]1O [DIGOXIN]
- EC50 [24]: < 0.1 µM (active)
- CC50 [20]: 0.37 µM (active)
- CC50 ([20]; Chlorocebus sabaeus, Vero): 0.3 µM (active)
- IC50 [3]: < 0.05 µM (active)
- AC50 [25]: 0.414 µM (active)
- EC50 [26]: < 0.104 µM (active)
- EC50 [27]: < 0.1 µM (active)
- CC50 [4]: 0.39 µM (active)
- EC50 [28]: < 0.1 µM (active)

Reference: ChEMBL document CHEMBL1201862, “PubChem BioAssay data set” (2004)
